These results are taken from US20040224943A1, “Method of lowering body temperature with (R) - 2,3-benzodiazepines” (priority 2003, published 2004).

SMILES strings stand for the structures.

The test system of data set [1] is mice. The conditions noted are these: cited from earlier work.
Another data set relates to rats. The conditions noted are these: cited from earlier work.
In data set [2] the test system is mice. The conditions noted are these: reported in U.S. Pat. No. 4,322,346; cited from earlier work.
Data set [3] relates to mice. The data set is described as follows: Stress Induced Hyperthermia (SIH) assay. In kind it is in vivo. To be noted: for lowering the core body temperature: 64 mg/kg intraperitoneally 60 minutes before T1, at both T1 and T2. As to the method: In this assay, two successive temperature measurements are performed, the first, a basal measurement and the second, a measurement of a stress-enhanced temperature. The difference between the two measurements (delta T) is compared in animals treated with a test compound versus animals treated with vehicle alone to determine the test compound's activity in lowering body temperature. […] Besides the effect of drugs on the stress-enhanced temperature (T2), this test also directly measures intrinsic effects of drugs on the core body temperature (T1). Thus a test compound that reduces T2 and thus yields a lower delta T has utility in therapies that are directed to lowering the body temperature of an individual, such as perimenopause and menopause.
Mice, individually housed overnight, were subjected to two sequential rectal temperature measurements ten minutes apart. The first measurement is the basal temperature (T1), the second one the stress-enhanced temperature (T2). The difference (delta T) is the stress-induced hyperthermia. See, Van der Heyden et al., “Stress-induced hyperthermia in singly housed mice,” Physiology and Behavior, 463-470, (1997).
Test animals (group housed mice) were assigned to five groups of ten animals each. The test groups were dosed according to Table 2 below.
The test animals were isolated in an experimental room approximately one hour before lights off on the day before the test. On the day of testing, animals were taken quietly from the cage, held in a supine position, the rectal temperature was measured and the animal was placed back into the cage. The same procedure was repeated 10 minutes later. The first temperature (T1), the second temperature (T2) and the difference (delta T) were recorded. The test compounds were administered intraperitonealy 60 minutes before T1, in order to prevent the stress of being injected from affecting the temperature measurements.

The next data set deals with central BZ receptors. The conditions noted are these: cited from earlier work.
A further data set deals with peripheral BZ receptors (Homo sapiens, UniProt P30536). To be noted: cited from earlier work.
Chain of peripheral BZ receptors (P30536 whole entry): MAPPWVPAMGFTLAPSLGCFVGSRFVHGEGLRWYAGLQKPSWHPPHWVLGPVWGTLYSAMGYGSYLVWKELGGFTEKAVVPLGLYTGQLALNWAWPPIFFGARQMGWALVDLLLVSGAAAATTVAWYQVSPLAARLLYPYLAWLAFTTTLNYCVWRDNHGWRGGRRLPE
The next data set relates to lymphocyte. The conditions noted are these: in vitro, cited from earlier work.

Turning to `CCC1C(C)=NN=C(c2ccc(O)c(OC)c2)c2cc(OC)c(O)cc21` (stereo not drawn) [Compound 5, 1-(3-methoxy-4-hydroxyphenyl)-4-methyl-5-ethyl-7-hydroxy-8-methoxy-5H-2,3-benzodiazepine], the inhibition of aggression in the data set with mice [1] was 28.6%. Also, the inhibition of muricide in the data set on rats was 20%.

Regarding `CCC1C(C)=NN=C(c2ccc(OC)c(OC)c2)c2cc(OC)c(O)cc21` (stereo not drawn) [Compound 1, 1-(3,4-dimethoxyphenyl)-4-methyl-5-ethyl-7-hydroxy-8-methoxy-5H-2,3-benzodiazepine], the inhibition of aggression with mice [1] is reported as 0%. The inhibition of muricide in the data set with rats is 20%.

In the case of `CCC1C(C)=NN=C(c2ccc(O)c(OC)c2)c2cc(OC)c(OC)cc21` (stereo not drawn) [Compound 3, 1-(3-methoxy-4-hydroxyphenyl)-4-methyl-5-ethyl-7,8-dimethoxy-5H-2,3-benzodiazepine], in the data set with mice [1], the inhibition of aggression was 0%. In the data set on rats, the inhibition of muricide is listed as 0%. For the same molecule, the narcosis-potentiating activity result with mice [2] was “narcosis-potentiating activity”.

As for `CC[C@@H]1C(C)=NN=C(c2ccc(OC)c(OC)c2)c2cc(OC)c(OC)cc21` [(S)-tofisopam, (S)-1-(3,4-dimethoxyphenyl)-4-methyl-5-ethyl-7,8-dimethoxy-5H-2,3-benzodiazepine], the “lowering the core body temperature” value in the data set on mice [3] is on record as “more active than either the racemate or the (R)-enantiomer”.

With `CCC1C(C)=NN=C(c2ccc(OC)c(OC)c2)c2cc(OC)c(OC)cc21` (racemic) [tofisopam], in the data set with mice [3], the “lowering the core body temperature” value is on record as “demonstrates activity in lowering the core body temperature”. The “interaction with central BZ receptors” value in the data set on central BZ receptors is listed as “does not interact”. Further, the “binding to peripheral BZ receptors” value at peripheral BZ receptors is given as “binds only weakly”. The IL-2 production result in the data set with lymphocyte (mitogen-induced) is on record as “enhances”. Moreover, the mitogen-induced lymphocyte proliferation entry in the data set with lymphocyte is reported as “enhances”.

As for `CC[C@H]1C(C)=NN=C(c2ccc(OC)c(OC)c2)c2cc(OC)c(OC)cc21` [(R)-tofisopam, (R)-1-(3,4-dimethoxyphenyl)-4-methyl-5-ethyl-7,8-dimethoxy-5H-2,3-benzodiazepine], the “lowering the core body temperature” value in the data set on mice [3] was “demonstrated therapeutic activity”. Also, the “sedation, abnormal gait, ptosis, muscle tone, lacrimation, reactivity to touch” value with mice [3] (64 mg/kg intraperitoneally, compared with (S)-enantiomer or racemate) is listed as “less sedation, abnormal gait, or ptosis, decreased muscle tone, decreased lacrimation, or decreased reactivity to touch”.
